From patent US5480645A, “Hydroxyamines N-acyl derivatives having scavenger activity and useful in acute and chronic pathologies associated with peroxidation and inflammation phenomena” (LifeGroup S.p.A., priority 1992, dated 1996)
Read-outs that look alike come from different tables or passages of the source.

What was measured:
C6 glioma cells = assay: Protection against 5 mM glutamate cytotoxicity in glioma C6 cultures
[1] = test system: rat cerebellar granular cells; assay: Protection against glutamate neurotoxicity in rat cerebellar granular cell cultures; type: cell-based; conditions: glutamate alone, 50 μM; Table 4; control 100; 1440 min
Description: Primary cerebellar granular cell cultures are prepared from 8 days old Sprague-Dawly rats. Neurons are grown on 35 mm plates for 7-8 days. […] Glial cells proliferation is prevented by cytosine arabinose-furanoside.
Cells are washed in Locke solution free from Mg^2+ then replated in the conditionned culture medium.
The solution is diluted serially up to 10, 20 and 50 μM. The compounds at the desired concentrations are added to the cells at 37 ° C.; after 15' 50 μM glutamate free from Mg^2+ is added For 15 minutes at 22 ° C.
The cells are then washed 3 times with Locke solution, then added to the original culture medium and maintained at 37 ° C. in 5 % CO2 for 24 hours.
The cellular survival is measured by using a fluorescence microscope.

[2] = test system: granular cerebellar cells; assay: Protection against 2 mM glutamate cytotoxicity in immature granular cerebellar cell cultures
[3] = test system: rat liver microsomes (membrane phospholipid peroxidation); assay: Antiperoxidative activity on rat liver microsomes, NADPH/Fe+2/ADP induced peroxidation (MDA formation); type: biochemical
Description: Before the final resuspension mitochondria ape washed with 0.125M KCl containing 15 mM Hepes/10 mM tris at pH=7.4. Rat liver microsomes are prepared as described by Ernster and Nordenbrand (Ernster, Nordenbrand K. Methods Enzymol. 1967, 10:574-80). […]
b) 20 mM Hepes-Tris buffer pH=7.4, 0.5 mM cumene hydroperoxide in the presence or in the absence of the compounds to be tested. The trials after incubation are interrupted with 1 ml 35% TCA which 30 mg BHT and 1 ml 1% TBA (thiobarbituric acid) have been added to. Subsequently the incubation is carried out for 15' at 90° C. in order to allow the development of the coloured adduct.
(§1) A common oxidation product, malonyldialdehyde (MDA), to the two oxidant systems described in (a) and in (b), is measured.
The formed MDA is evaluated by spectrophotometry at 532 nm and calculated by using a molar extinction coefficient of 156.000 (Buege J. A. and Aust S. D., Methods Enzymol., 52, 302-310, 1978).
The tested compounds are solubilized in the culture medium up to the desired concentrations (see tables 1-3). […]
The antiperoxidase activity is measured as % of inhibition of malonyldialdehyde formation.

[4] = test system: rat liver microsomes (membrane phospholipid peroxidation); assay: Antiperoxidative activity on rat liver microsomes, cumene hydroperoxide induced peroxidation (MDA formation); type: biochemical; conditions: 0.5 mM cumene hydroperoxyde, Table 3; for MDA: control 12.8
Description: b) 20 mM Hepes-Tris buffer pH=7.4, 0.5 mM cumene hydroperoxide in the presence or in the absence of the compounds to be tested. […] Subsequently the incubation is carried out for 15' at 90° C. in order to allow the development of the coloured adduct.
as §1
The tested compounds are solubilized in the culture medium up to the desired concentrations (see tables 1-3).
As peroxidant agent 0.5 mM cumene hydroperoxyde is used. As oxidation index the formation of malonyldialdehyde (MDA) is measured (nmoles/mg protein).

Solubility = type: physicochemical; conditions: for solubility: organic solvent or mixture, in ethanol, read-out: solubility in org. solv.
[5] = Rattus norvegicus, C6 glioma, 24 h, read-out: % Cell survival
[6] = Mus musculus, 24 h, read-out: % Cellular survival

In the case of `N[C@@H](CCC(=O)O)C(=O)O` [Glutamate, reference compound], the cellular degeneration (C6 glioma cells; 5 mM glutamate for 24 hours) is reported as 90%, the “% Cell survival” value (C6 glioma cells; glutamate alone, 5 mM, 24 hours, Table 5) is reported as 7% and the cell survival [1] is reported as 3%. The cell death ([2]; 2 mM glutamate for 24 hours, immature granular cerebellar cells) was 60+70% and the “% Cellular survival” value ([2]; glutamate alone, 2 mM, 24 hours, Table 6) was 30%.

Work on `CC(=O)Oc1c(C)c(C)c2c(c1C)CCC(C)(CCC[C@H](C)CCC[C@H](C)CCCC(C)C)O2` (stereo partly shown) [Vit. E acetate, reference compound] yielded a peroxidation inhibition ([3]; 10 μM, NADPH/Fe+2/ATP, Table 1-A) of 0%, an MDA ([3]; 10 μM, NADPH/Fe+2/ATP, Table 1-A, control 42.5) of 51.08 nmoles/mg prot and a peroxidation inhibition ([3]; 20 μM, NADPH/Fe+2/ATP, Table 1-A) of 0%. It also gave an MDA ([3]; 20 μM, NADPH/Fe+2/ATP, Table 1-A, control 42.5) of 49.34 nmoles/mg prot, a peroxidation inhibition ([3]; 40 μM, preincubation time 0 minutes, ADP/NADPH/Fe, Table 2) of 1.90% and a peroxidation inhibition ([3]; 40 μM, preincubation time 15 minutes, ADP/NADPH/Fe, Table 2) of 18.20%. For the same compound, the peroxidation inhibition ([3]; 40 μM, preincubation time 30 minutes, ADP/NADPH/Fe, Table 2) was 28.95%, the peroxidation inhibition ([3]; 40 μM, preincubation time 45 minutes, ADP/NADPH/Fe, Table 2) was 35.80% and the peroxidation inhibition ([3]; 40 μM, preincubation time 60 minutes, ADP/NADPH/Fe, Table 2) was 40.35%. For the same compound, the “inhibition of the peroxidation induced by NADPH/Fe+2/ADP (in words)” value ([3]; in vitro, 10 to 50 μM dose/effect relationship for the test compound) was “inactive in the in-vitro systems”, the peroxidation inhibition ([4]; 20 μM) was 0% and the MDA ([4]; 20 μM) was 14.29 nmoles/mg prot. It also gave a peroxidation inhibition ([4]; 50 μM) of 0% and an MDA ([4]; 50 μM) of 11.57 nmoles/mg prot.

In the case of `CC(=O)OCCNC(=O)C1(C)CCc2c(C)c(OC(C)=O)c(C)c(C)c2O1` (stereo not shown) [Example 3, 6-acetoxy-2,5,7,8-tetramethyl-chroman-2-(2-acetoxyethyl)-carboxyamide], the “peroxidation inhibition” value ([3]; 2.5 μM, Table 1-B, third series) is reported as 23.1%, the MDA ([3]; 2.5 μM, Table 1-B, third series (control 37.4)) is reported as 28.8 nmoles/mg/protein and the “peroxidation inhibition” value ([3]; 5 μM, Table 1-B, third series) is reported as 41.6%. The MDA ([3]; 5 μM, Table 1-B, third series (control 37.4)) was 21.8 nmoles/mg/protein, the “peroxidation inhibition” value ([3]; 10 μM, Table 1-B, third series) was 53.8% and the MDA ([3]; 10 μM, Table 1-B, third series (control 37.4)) was 17.2 nmoles/mg/protein. The “peroxidation inhibition” value ([3]; 20 μM, Table 1-B, third series) was 62.1%, the MDA ([3]; 20 μM, Table 1-B, third series (control 37.4)) was 14.1 nmoles/mg/protein and the viability at 1 µM (C6 glioma cells; [5]) was 17%. For the same compound, the viability at 3 µM (C6 glioma cells; [5]) was 40%, the viability at 10 µM (C6 glioma cells; [5]) was 82% and the solubility (Solubility) was > 10000 µg/mL. For the same compound, the water solubility (Solubility) was “slightly soluble”, the viability at 1 µM [2, 6] was 49% and the viability at 10 µM [2, 6] was 60%. For the same compound, the viability at 30 µM [2, 6] was 77%.

With `Cc1c(C)c2c(c(C)c1O)CCC(C)(C(=O)NCCCO)O2` (stereo not shown) [Example 4, N-(6-hydroxy-2,5,7,8-tetramethylchroman-2-carboxyl)-propanolamine] the “peroxidation inhibition” value ([3]; 10 μM, Table 1-B, first series) was 37%, the MDA ([3]; 10 μM, Table 1-B, first series (control 46.27)) was 28.96 nmoles/mg/protein and the “peroxidation inhibition” value ([3]; 20 μM, Table 1-B, first series) was 95.5%. The MDA ([3]; 20 μM, Table 1-B, first series (control 46.27)) was 1.61 nmoles/mg/protein, the “peroxidation inhibition” value ([3]; 40 μM, Table 1-B, first series) was 97.7% and the MDA ([3]; 40 μM, Table 1-B, first series (control 46.27)) was 1.07 nmoles/mg/protein. For the same compound, the “peroxidation inhibition” value ([3]; 60 μM, Table 1-B, first series) was 97.7%, the MDA ([3]; 60 μM, Table 1-B, first series (control 46.27)) was 1.04 nmoles/mg/protein and the “peroxidation inhibition” value ([3]; 80 μM, Table 1-B, first series) was 97.7%. The MDA ([3]; 80 μM, Table 1-B, first series (control 46.27)) was 1.07 nmoles/mg/protein, the “peroxidation inhibition” value ([3]; 100 μM, Table 1-B, first series) was 99.3% and the MDA ([3]; 100 μM, Table 1-B, first series (control 46.27)) was 0.30 nmoles/mg/protein. It also gave a viability at 1 µM (C6 glioma cells; [5]) of 10%, a viability at 3 µM (C6 glioma cells; [5]) of 94% and a viability at 10 µM (C6 glioma cells; [5]) of 90%. For the same compound, the solubility (Solubility; DMSO, chloroform) was > 10000 µg/mL, the water solubility (Solubility) was “slightly soluble” and the viability at 1 µM [2, 6] was 39%. It also gave a viability at 3 µM [2, 6] of 60% and a viability at 10 µM [2, 6] of 77%.

Compound `Cc1c(C)c2c(c(C)c1O)CCC(C)(C(=O)O)O2` (stereo not shown) [6-hydroxy-2,5,7,8-tetramethylchroman-2-carboxylic acid, reference compound] has a viability at 10 µM (C6 glioma cells; [5]) of 7%, a viability at 30 µM (C6 glioma cells; [5]) of 37% and a viability at 100 µM (C6 glioma cells; [5]) of 94%. It also gave a viability at 10 µM [2, 6] of 43%, a viability at 50 µM [2, 6] of 54% and a viability at 100 µM [2, 6] of 84%.
